Data as given in patent US6685851B2, “Derivatives of cycloaliphatic diamines as cosolvents for aqueous hydrophobic amines” (PRC-DeSoto International, Inc., priority 1999, dated 2004).

Key:
Type in all cases: physicochemical
[1] = Water added dropwise to 1:1 hydrophobic amine/cosolvent amine blend until turbidity (visible light scattering)
Procedure: To illustrate the efficiency of the present invention to solubilize various hydrophobic amines, one part by weight of various commercially available hydrophobic amines is blended with one part by weight of a cosolvent amine. Water is then added dropwise with vigorous stirring to the blend of one part hydrophobic amine and one part cosolvent amine. The parts of water added is monitored by the appearance of turbidity as measured by visible light scattering. […] Cosolvents amines A-D are those of the present invention. In order to assess the relative efficiency of the cosolvent amines of the present invention, A-D; conventional cosolvent amines, E-I and the omission of a cosolvent, J are also evaluated.

[2] = biological target: T1, bacteriorhodopsin (Halobacterium salinarum, UniProt P02945); test: Dispersion of bacteriorhodopsin in aqueous cosolvent by small angle x-ray scattering (Example 3); settings: 0.1 gram bacteriorhodopsin, 0.1 grams cosolvent, 1.1 grams water
T1 construct: A lyophilized powder of bacteriorhodopsin is obtained according to D. Oesterhett Mtds; Enzy 31, 1974, 667; made in house; host or cells: Isolated from the natural producer (Halobacterium) by the cited literature method
T1 sequence (P02945 14-262): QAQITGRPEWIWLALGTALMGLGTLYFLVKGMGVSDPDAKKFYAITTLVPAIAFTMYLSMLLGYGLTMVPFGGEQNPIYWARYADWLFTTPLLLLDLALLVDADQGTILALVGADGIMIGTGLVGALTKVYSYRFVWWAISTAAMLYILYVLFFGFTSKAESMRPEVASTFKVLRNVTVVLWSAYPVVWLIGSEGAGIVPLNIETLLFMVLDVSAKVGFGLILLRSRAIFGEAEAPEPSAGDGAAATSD
Source text: A lyophilized powder of bacteriorhodopsin is obtained according to D. Oesterhett Mtds. Enzy 31, 1974, 667. 0.1 gram of bacteriorhodopsin is mixed with 0.1 grams of 1,2 diaminocycylohexane cosolvent and 1.1 grams of water added.

[3] = Aqueous solution of polyamidoamine with cosolvent amine, appearance and stability (Example 1); settings: 10 parts polyamidoamine, 10 parts cosolvent, 150 parts room temperature water
Procedure: 10 parts of a polyamidoamine (Air Products 506 amidoamine) is added to a reactor equipped with a mechanical agitator.

[4] = 1 part Air Products 506 Amidoamine + 1 part cosolvent amine by weight
[5] = 1 part Air Products 2460 Polyamide + 1 part cosolvent amine by weight
[6] = 1 part Cardolite NC-540 Phenalkamine + 1 part cosolvent amine by weight

Row | SMILES | Parts of water added to 2 parts of amine blend yielding a clear solution [1, 4] [parts] | Parts of water added to 2 parts of amine blend yielding a clear solution [1, 5] [parts] | Parts of water added to 2 parts of amine blend yielding a clear solution [1, 6] | Dispersion of bacteriorhodopsin in the aqueous cosolvent [2] | Appearance of aqueous solution [3] | Stability of the solution [3]
1 | CC1(C)CC(N)CC(C)(CN)C1 (stereo not drawn) [Cosolvent A, Isophorone diamine] | >28 | >22 | >30 parts | – | – | –
2 | NC1CCCC1N (stereo not drawn) [Cosolvent D, 1,2 Diaminocyclopentane] | <5 | <5 | <3.5 parts | – | – | –
3 | CC(CN)CCCN (stereo not drawn) [Cosolvent E] | <6 | 3.5 | <3.9 parts | – | – | –
4 | NCCCN1CCN(CCCN)CC1 [Cosolvent F, 1,4-Bis (3-aminopropyl) piperazine, reference compound] | <4 | <2 | <.5 parts | – | – | –
5 | NCc1cccc(CN)c1 [Cosolvent I, m-Xylylenediamine, reference compound] | <5 | <3.75 | <.5 parts | – | – | –
6 | NC1CCCCC1N (stereo not drawn) [Cosolvent C, 1,2-Diamino cyclohexane] | – | – | – | uniformly dispersed | – | –
7 | NCCOCCOCCN [Cosolvent G] | <2 | <2 | <.5 parts | – | – | –
8 | NCC1CCCC(CN)C1 (stereo not drawn) [Cosolvent B, 1,3-Bis (aminomethyl) cyclohexane] | >19 | >10 | >18 parts | – | uniform, clear solution is formed | stable for greater than three months
9 | CCCCC(N)CN (stereo not drawn) [Cosolvent H, 1,2-Hexanediamine, reference compound] | <7 | <3.6 | <3 parts | – | – | –
